Two molecules from patent publication US20060040924A1, “Derivatives of aryl (or heteroaryl) azolylcarbinols for the treatment of renal colic” (Laboratorios Dr. Esteve S.A., priority 2004, published 2006) can be followed below.

The data set concerns patients presenting with acute pain from suspected renal colic. Briefly: Clinical Study A: analgesic efficacy and safety of cizolirtine citrate versus sodium metamizol, single intravenous dose. The class given is in vivo, human. The note with it: for proportion of patients showing complete pain relief / proportion of patients showing satisfactory pain relief (decrease of pain intensity ≧50%): VAS at t+30 min; for Pain in the VAS at t + 30 min (LSM [SEM]), primary efficacy endpoint: per protocol population, 100 mm VAS, 30 min after start of single iv infusion (350 mg cizolirtine citrate or 2,500 mg sodium metamizol), adjusted means; for number of adverse events: per treatment group (32 randomized each), vomits and one episode of fever, all mild or moderate, none serious. Here is the method:
Objectives: to compare the analgesic efficacy and safety of cizolirtine citrate, an inhibitor of the release of the substance P, versus sodium metamizol to treat acute pain. Method: sixty four patients presenting with acute pain from suspected renal colic were randomized to a single intravenous dose of either 350 mg of cizolirtine citrate or 2,500 mg of sodium metamizol. Pain was assessed throughout 6 hours by means of visual analogical (VAS) and categorical scales. Results: renal colic was confirmed in all patients randomized. After 30 minutes, pain adjusted mean scores (100 mm VAS) were (LSM±SEM) 39.203±4.4 mm and 30.155±4.2 mm. In the cizolirtine and metamizol groups, respectively (p=0.1203). […] However, efficacy was lower than that of the comparator, an established treatment.
Study population: Subjects of either sex aged between 18 and 65 years old suffering moderate to severe pain due to a suspected renal colic starting within previous 24 hour and having a urine dipstick test positive for haematuria. Since this was an exploratory pilot phase II study, a formal sample size calculation was not performed. Moreover, no previous information regarding a comparison between the effects of sodium metamizol and placebo as analgesics for the management of renal colic could be found. Therefore, a minimum effect size to establish a non-inferiority margin was not be established. Nevertheless, to detect a difference of at least 25 mm in pain intensity measured with the VAS assuming a common standard deviation of 36.1 by means of a one-sided t test, 26 patients per group were necessary. Considering a dropout rate of 20%, 64 patients were recruited in the study
Study treatments: Either one single 350 mg dose of cizolirtine citrate or one single 2,500 mg dose of sodium metamizol by slow intravenous infusion in 15 minutes in a double-blind and randomized fashion and in a 1:1 proportion. Rescue doses of butorphanol were given as needed but were not allowed during the first 30 minutes.
Measurements: Patients ranked their pain intensity on both a visual analogical scale (VAS) and a verbal categorical scale at baseline and 15, 30 and 45 minutes and 1, 2, 3, 4, […] after receiving the study drug. Vital signs were determined also at 15, 30 and 45 minutes and at 1 and 6 hours. Active questioning for adverse events since receiving study medication was done after 2 hours. Confirmatory diagnosis of an ureteral stone had to be established before the end of the study.
Primary endpoint: mean pain intensity as determined by the VAS 30 minutes after the start of study drug administration (t+30 min).
Statistics: Demographic and baseline continuous variables values were compared between treatment groups by means of a t test. Primary efficacy analyses were performed in the per protocol population. An analysis of covariance model with the factors treatment, centre and the treatment by centre interaction and considering the baseline value as a covariate was used or the comparison between the groups. In addition, the bilateral 95% confidence interval was calculated for the difference between treatments.
The proportions of patients with complete and satisfactory pain relief between treatments at t+30 min were compared between treatment groups by means of a chi-square test and also the bilateral 95% confidence intervals for the differences were calculated. The time-treatment variables were evaluated by means of the Kaplan-Meier method and the log-rank test was used to compare the treatment groups, pain intensity differences as determined by means of the visual analogical scale (APID), pain intensity differences as determined by means of the categorical scale (CPID) and relief of pain as determined by means of the categorical scale on pain relief (PAR) from baseline to t+30 min were compared between treatment groups by means of a repeated measures analysis of variance. […]

Setting [1] is: 30 min after start of single iv dose, versus baseline.

For `CN(C)CCO[C@H](c1ccccc1)c1ccnn1C.O=C(O)CC(O)(CC(=O)O)C(=O)O` (racemic) [Cizolirtine, (±)-5-{α-[2-(dimethylamino)ethoxy]benzyl}-1-methyl-1H-pirazole citrate], the “proportion of patients showing complete pain relief” value is 48.4%; the “proportion of patients showing satisfactory pain relief (decrease of pain intensity ≧50%)” value is on record as 64.5%; the “Pain in the VAS at t + 30 min (LSM [SEM]), primary efficacy endpoint” value (shortened to “Pain … (LSM [SEM]), primary efficacy endpoint”) stood at 39.203±4.4 mm; the “number of adverse events” value was 3. Besides, the “mean decrease in pain intensity (VAS) at t+30 min” value under setting [1] is 57.2%. In addition, the “onset of analgesia relative to comparator (time-curves APID, CPID, PAR)” value (difference disappears after 2 hours) was “deferred with respect to that provided by metamizol”.
On to `Cc1c(N(C)CS(=O)(=O)[O-])c(=O)n(-c2ccccc2)n1C.[Na+]` [Metamizol, sodium metamizol], for which the “proportion of patients showing complete pain relief” value came out at 56.3%; the “proportion of patients showing satisfactory pain relief (decrease of pain intensity ≧50%)” value was 75.0%; the “Pain … (LSM [SEM]), primary efficacy endpoint” value stood at 30.155 mm; the “number of adverse events” value came out at 3. Further, under setting [1], the “mean decrease in pain intensity (VAS) at t+30 min” value is on record as 69.1% and the “mean reductions in pain intensity determined by the VAS at t+30 min” value is 57.1 mm. Under “listed as metamizol”, the “Pain … (LSM [SEM]), primary efficacy endpoint” value is reported as 30.155±4.2 mm.
